According to patent publication US20050123602A1, “Rifalazil formulations” (priority 2003, published 2005):

Assay: Pharmacokinetics after single peroral administration of 5 mg rifalazil, fed and fasted
Type: in vivo, beagle dogs
Settings: dogs, liquid-filled vs microgranulated
Procedure: Pharmacokinetic parameters were determined following a single peroral administration of 5 mg of rifalazil in healthy male beagle dogs. The rifalazil was formulated either as a liquid-filled capsule of Example 3 or as a powder-filled capsule containing microgranulated rifalazil as described in U.S. Pat. No. 5,547,683.
Both formulations were administered under fed and fasted conditions. All animals were fasted overnight prior to dosing. Animals designated as “fed” were administered a blended combination of dog chow and water in a 1:3 ratio (e.g. 250 g chow and 750 g water) via oral gavage at a dose volume of 20 mL/kg within approximately 30 minutes prior to dosing and food was provided Ad-libitum after approximately 4 hours following dosing. Animals in “fasted” groups were not fed prior to dosing and food was withheld until after approximately 4 hours after dosing. […]
Pharmacokinetic endpoints and parameters were calculated by noncompartmental analysis (NCA) using WinNonlin®.
The pharmacokinetic parameters Tmax, Cmax, AUCt, AUC∞, T1/2 (elimination), and F (bioavailability) were calculated as well as the coefficient of variation (CV) in each. […]

SMILES: CO[C@H]1/C=C/O[C@@]2(C)Oc3c(C)c(O)c4c(=O)c(c5oc6cc(N7CCN(CC(C)C)CC7)cc(O)c6nc-5c4c3C2=O)NC(=O)/C(C)=C\C=C\[C@H](C)[C@H](O)[C@@H](C)[C@@H](O)[C@@H](C)[C@H](OC(C)=O)[C@@H]1C [rifalazil, Rifalazil]
- effect of changes in the formulation upon elimination half-life (T1/2): no effect
